Data published in ChEMBL document CHEMBL1136748, “A novel N-terminal cyclic dynorphin A analogue cyclo(N,5)[Trp(3),Trp(4),Glu(5)] dynorphin A-(1-11)NH(2) that lacks the basic N-terminus” (J Med Chem, 2003).
Where a SMILES comes first, the peptide text is derived from it. Bridges are numbered along the chain shown (N, C = ends). [ ]: non-standard residue; d: D form.

Tests used:
Type in all cases: cell-based
[1] = target: Kappa-type opioid receptor (Rattus norvegicus) (UniProt P34975); test: Tested for maximum percentage inhibition against cloned rat Opioid receptor kappa 1 stably expressed in CHO cells by adenylyl cyclase assay
Kappa-type opioid receptor (Rattus norvegicus), sequence (P34975 whole entry): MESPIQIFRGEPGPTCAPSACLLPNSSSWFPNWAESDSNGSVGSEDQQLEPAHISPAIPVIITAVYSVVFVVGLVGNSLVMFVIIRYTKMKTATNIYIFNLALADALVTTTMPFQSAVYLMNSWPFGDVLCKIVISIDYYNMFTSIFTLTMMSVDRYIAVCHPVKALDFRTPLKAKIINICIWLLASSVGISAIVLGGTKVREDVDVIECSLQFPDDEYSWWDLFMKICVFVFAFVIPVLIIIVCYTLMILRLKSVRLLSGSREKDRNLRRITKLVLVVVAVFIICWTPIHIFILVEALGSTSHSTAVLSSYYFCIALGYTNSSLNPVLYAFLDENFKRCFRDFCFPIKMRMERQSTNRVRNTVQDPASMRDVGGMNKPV

Mu-type opioid receptor = Mu-type opioid receptor (Homo sapiens, UniProt P35372); test: Binding affinity towards Opioid receptor mu 1 using [3H]DAMGO as radioligand in Chinese hamster ovary cells expressing cloned opioid receptors
Mu-type opioid receptor, sequence (P35372 whole entry): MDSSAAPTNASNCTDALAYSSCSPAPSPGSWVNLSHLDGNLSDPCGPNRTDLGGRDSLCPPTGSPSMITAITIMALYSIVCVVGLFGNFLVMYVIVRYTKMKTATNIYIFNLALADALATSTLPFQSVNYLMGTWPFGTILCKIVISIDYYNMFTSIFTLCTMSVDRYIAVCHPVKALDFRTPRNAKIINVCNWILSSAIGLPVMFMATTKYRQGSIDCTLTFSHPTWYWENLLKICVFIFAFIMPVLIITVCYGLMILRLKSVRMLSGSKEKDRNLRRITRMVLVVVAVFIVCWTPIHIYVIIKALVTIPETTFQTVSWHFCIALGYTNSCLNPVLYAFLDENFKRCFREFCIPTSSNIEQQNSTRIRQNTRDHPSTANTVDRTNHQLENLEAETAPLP

[2] = target: Kappa-type opioid receptor (Cavia porcellus, UniProt P41144); test: Binding affinity towards Opioid receptor kappa 1 using [3H]diprenorphine as radioligand in Chinese hamster ovary cells expressing cloned opioid receptors
Kappa-type opioid receptor, sequence (P41144 whole entry): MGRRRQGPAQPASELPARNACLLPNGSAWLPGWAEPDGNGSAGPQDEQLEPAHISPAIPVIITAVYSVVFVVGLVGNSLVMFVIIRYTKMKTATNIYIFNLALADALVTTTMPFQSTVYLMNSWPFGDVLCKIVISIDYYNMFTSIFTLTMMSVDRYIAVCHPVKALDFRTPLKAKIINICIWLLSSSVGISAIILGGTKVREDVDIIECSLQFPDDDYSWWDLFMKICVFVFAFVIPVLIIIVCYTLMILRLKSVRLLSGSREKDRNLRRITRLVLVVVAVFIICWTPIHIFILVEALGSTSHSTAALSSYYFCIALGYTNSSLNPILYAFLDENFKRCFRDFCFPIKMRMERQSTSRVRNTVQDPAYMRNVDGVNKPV

[3] = target: Delta-type opioid receptor (Rattus norvegicus, UniProt P33533); test: Binding affinity towards Opioid receptor delta 1 using [3H]DPDPE as radioligand in Chinese hamster ovary cells expressing cloned opioid receptors
Delta-type opioid receptor, sequence (P33533 whole entry): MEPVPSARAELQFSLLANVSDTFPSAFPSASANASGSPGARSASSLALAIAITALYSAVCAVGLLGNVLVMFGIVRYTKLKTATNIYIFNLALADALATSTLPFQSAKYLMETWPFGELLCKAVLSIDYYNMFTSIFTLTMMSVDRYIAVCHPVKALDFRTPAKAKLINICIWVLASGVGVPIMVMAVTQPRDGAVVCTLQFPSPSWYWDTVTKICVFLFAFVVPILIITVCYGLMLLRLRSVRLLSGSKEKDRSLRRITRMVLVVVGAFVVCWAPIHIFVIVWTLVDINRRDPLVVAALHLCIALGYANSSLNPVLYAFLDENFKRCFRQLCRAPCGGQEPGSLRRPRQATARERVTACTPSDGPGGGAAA

| Compound | inhibition [1] | Ki (Mu-type opioid receptor) | Ki [2] | Ki [3] |
| --- | --- | --- | --- | --- |
| CC(=O)N[C@@H](Cc1ccc(O)cc1)C(=O)NCC(=O)N[C@@H](Cc1c[nH]c2ccccc12)C(=O)N[C@@H](Cc1c[nH]c2ccccc12)C(=O)N[C@@H](CC(C)C)C(=O)N[C@@H](CCCN=C(N)N)C(=O)N[C@@H](CCCN=C(N)N)C(=O)N[C@@H](C)C(=O)N[C@@H](CCCN=C(N)N)C(=O)N1CCC[C@H]1C(=O)N[C@@H](CCCCN)C(N)=O | 15% |  |  |  |
| CC(=O)N[C@@H](Cc1ccc(O)cc1)C(=O)NCC(=O)N[C@@H](Cc1c[nH]c2ccccc12)C(=O)N[C@@H](Cc1c[nH]c2ccccc12)C(=O)N[C@@H](CC(C)C)C(=O)N[C@@H](CCCN=C(N)N)C(=O)N[C@@H](CCCN=C(N)N)C(=O)N[C@H](C)C(=O)N[C@@H](CCCN=C(N)N)C(=O)N1CCC[C@H]1C(=O)N[C@@H](CCCCN)C(N)=O [[GLY2]VENORPHIN] |  | 339 nM | 8.4 nM | > 10000 nM |
| Ac-YKWWLRRARPK-NH2 | 28% |  |  |  |
| CC[C@H](C)[C@H](NC(=O)[C@H](CCCN=C(N)N)NC(=O)[C@H](CCCN=C(N)N)NC(=O)[C@@H]1CCC(=O)N[C@@H](Cc2ccc(O)cc2)C(=O)NCC(=O)N[C@@H](Cc2c[nH]c3ccccc23)C(=O)N[C@@H](Cc2c[nH]c3ccccc23)C(=O)N1)C(=O)N[C@@H](CCCN=C(N)N)C(=O)N1CCC[C@@H]1C(=O)N[C@@H](CCCCN)C(=O)O | 8% |  |  |  |
| CC(=O)N[C@@H](Cc1ccc(O)cc1)C(=O)N[C@@H](CCCCN)C(=O)N[C@@H](Cc1c[nH]c2ccccc12)C(=O)N[C@@H](Cc1c[nH]c2ccccc12)C(=O)N[C@@H](CC(C)C)C(=O)N[C@@H](CCCN=C(N)N)C(=O)N[C@@H](CCCN=C(N)N)C(=O)N[C@H](C)C(=O)N[C@@H](CCCN=C(N)N)C(=O)N1CCC[C@H]1C(=O)N[C@@H](CCCCN)C(N)=O [VENORPHIN] (Ac-YKWWLRR[dA]RPK-NH2) |  |  | 19.8 nM | 5320 nM |
| CC[C@H](C)[C@H](NC(=O)[C@H](CCCNC(=N)N)NC(=O)[C@H](CCCNC(=N)N)NC(=O)[C@@H]1CCC(=O)N[C@@H](Cc2ccc(O)cc2)C(=O)NCC(=O)N[C@@H](Cc2c[nH]c3ccccc23)C(=O)N[C@@H](Cc2c[nH]c3ccccc23)C(=O)N1)C(=O)N[C@@H](CCCNC(=N)N)C(=O)N1CCC[C@H]1C(=O)N[C@@H](CCCCN)C(N)=O (YGWWERRIRPK-NH2; lactam N-5) |  | 331 nM | 26.8 nM | > 8900 nM |
